Assay results from patent US20230365566A1, “HETEROCYCLIC AMIDES AND THEIR USE FOR MODULATING SPLICING” (REMIX THERAPEUTICS INC., priority 2020, published 2023).

Assays:
Type in all cases: cell-based
HTT CJ mRNA = test: Gene panel canonical junction qPCR assay, HTT; conditions: protocol of Example 42, read-out: HTT IC50 (decrease in CJ mRNA levels)
Outline: (§1)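 A673 or K562 cells treated 24 h at 37° C with 11-point 3-fold dilutions (top 10 uM, DMSO ≤0.25%). Canonical junction mRNA quantified by RT-qPCR, normalized to GAPDH, GUSB or PPIA and DMSO control (2^(−ΔΔCt)). 4-parameter logistic fit gives IC50 for CJ decrease.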

SMN2 CJ mRNA = test: Gene panel canonical junction qPCR assay, SMN2; conditions: protocol of Example 42, read-out: SMN2 IC50 (decrease in CJ mRNA levels)
Outline: as §1

[1] = system: HTT mRNA canonical junction (CJ); test: Splicing RT-qPCR assay, decrease of HTT canonical junction (CJ) mRNA; conditions: A673 or K562 cells, 24 hours compound treatment, concentration having 50% response in CJ decrease
Outline: (§2)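 A673 (DMEM, 10% FBS) or K562 (IMDM, 10% FBS) cells exposed 24 h at 37 °C to an 11-point 3-fold series, top dose 10 uM final, DMSO ≤0.25%. Lysates assayed by RT-qPCR for HTT CJ and AJ, normalized to GAPDH, GUSB or PPIA and DMSO control via 2^(−ΔΔCt).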

[2] = system: HTT mRNA alternative junction (AJ); test: Splicing RT-qPCR assay, increase of HTT alternative junction (AJ) mRNA; conditions: A673 or K562 cells, 24 hours compound treatment, concentration having 50% response in AJ increase
Outline: as §2

Target C CJ mRNA = test: Gene panel canonical junction qPCR assay, Target C; conditions: protocol of Example 42, read-out: Target C IC50 (decrease in CJ mRNA levels)
Outline: as §1

SMILES | IC50 (HTT CJ mRNA) | IC50 (SMN2 CJ mRNA) | AC50 [1] | AC50 [2] | IC50 (Target C CJ mRNA)
Cc1cn2cc(NC(=O)c3ccc(N(C)C4CCN(C)CC4)c4cc(C)oc34)cc(F)c2n1 [Compound 200] | 1000 to 10000 nM | < 100 nM | 1000 to 10000 nM | 1000 to 10000 nM | 1 to 10 µM
Cc1cn2cc(NC(=O)c3ccc(C4CCN(C)CC4)c4cn(C)nc34)cc(F)c2n1 [Compound 209, N-[8-fluoro-2-methylimidazo[1,2-a]pyridin-6-yl]-2-methyl-4-(1-methylpiperidin-4-yl)indazole-7-carboxamide] | 100 to 1000 nM | > 10000 nM | 100 to 1000 nM | 100 to 1000 nM | 1 to 10 µM
Cc1cn2cc(NC(=O)c3ccc(C4CC(C)(C)NC(C)(C)C4)c4cn(C)nc34)cc(F)c2n1 [Compound 212, N-[8-fluoro-2-methylimidazo[1,2-a]pyridin-6-yl]-2-methyl-4-(2,2,6,6-tetramethylpiperidin-4-yl)indazole-7-carboxamide] | 1000 to 10000 nM | 100 to 1000 nM | 1000 to 10000 nM | > 10000 nM | > 10 µM
Cn1cc2ccc(NC(=O)c3ccc(N4CCNCC4)c4cn(C)nc34)cc2n1 [Compound 230] | > 10000 nM | > 10000 nM | > 10000 nM | > 10000 nM | > 10 µM
Cc1cn2cc(NC(=O)c3ccc(N4CCN5CCCC5C4)c4cc(C)oc34)cc(F)c2n1 (stereo not shown) [Compound 199, N-[8-fluoro-2-methylimidazo[1,2-a]pyridin-6-yl]-4-[hexahydro-1H-pyrrolo[1,2-a]pyrazin-2-yl]-2-methyl-1-benzofuran-7-carboxamide] | 100 to 1000 nM | < 100 nM | 100 to 1000 nM | 100 to 1000 nM | 1 to 10 µM
Cc1cn2cc(NC(=O)c3ccc(C4CCNCC4)c4cc(C)oc34)cc(F)c2n1 [Compound 145, N-[8-fluoro-2-methylimidazo[1,2-a]pyridin-6-yl]-2-methyl-4-(piperidin-4-yl)-1-benzofuran-7-carboxamide] | 1000 to 10000 nM | < 100 nM | 1000 to 10000 nM | 1000 to 10000 nM | 0.1 to 1 µM
Cc1cn2cc(NC(=O)c3ccc(N4CCC(N5CCCC5)C4)c4cc(C)oc34)cc(F)c2n1 (stereo not shown) [Compound 204, 4-[[1,3′-bipyrrolidin]-1′-yl]-N-[8-fluoro-2-methylimidazo[1,2-a]pyridin-6-yl]-2-methyl-1-benzofuran-7-carboxamide] | 1000 to 10000 nM | < 100 nM | 1000 to 10000 nM | 1000 to 10000 nM | 1 to 10 µM
Cc1cn2cc(NC(=O)c3ccc(N4CCNC(C)(C)C4)c4cn(C)nc34)cc(F)c2n1 [Compound 240] | 100 to 1000 nM | < 100 nM | 100 to 1000 nM | 100 to 1000 nM | 1 to 10 µM
Cc1cn2cc(NC(=O)c3ccc(N4CCC(NC(C)(C)C)C4)c4cn(C)nc34)cc(F)c2n1 (stereo not shown) [Compound 249] | > 10000 nM | < 100 nM | > 10000 nM | > 10000 nM | > 10 µM
Cn1cc2c(F)cc(NC(=O)c3ccc(N4CCNCC4)c4cn(C)nc34)cc2n1 [Compound 231] | > 10000 nM | > 10000 nM | > 10000 nM | > 10000 nM | > 10 µM
Cc1cn2cc(NC(=O)c3ccc(N4CC5(CNC5)C4)c4cc(C)oc34)cc(F)c2n1 [Compound 205] | 100 to 1000 nM | < 100 nM | 100 to 1000 nM | 1000 to 10000 nM | 1 to 10 µM
Cc1cn2cc(NC(=O)c3ccc(N4CC5(CN(C)C5)C4)c4cn(C)nc34)cc(F)c2n1 [Compound 243] | 100 to 1000 nM | < 100 nM | 100 to 1000 nM | 100 to 1000 nM | 1 to 10 µM
Cc1cn2cc(-c3ccc(C(=O)NC4CCNCC4)c4nn(C)cc34)cc(F)c2n1 [Compound 280, 4-{8-fluoro-2-methylimidazo[1,2-a]pyridin-6-yl}-2-methyl-N-(piperidin-4-yl)indazole-7-carboxamide] | 1000 to 10000 nM | 1000 to 10000 nM | 1000 to 10000 nM | 1000 to 10000 nM | > 10 µM
Cc1cn2nc(NC(=O)c3ccc(N4CCNCC4)c4cc(C)oc34)cc(C)c2n1 [Compound 148, N-[2,8-dimethylimidazo[1,2-b]pyridazin-6-yl]-2-methyl-4-(piperazin-1-yl)-1-benzofuran-7-carboxamide] | 1000 to 10000 nM | 100 to 1000 nM | 1000 to 10000 nM | 1000 to 10000 nM | 1 to 10 µM
Cc1cn2cc(NC(=O)c3ccc(C4CCNCC4)c4c3OCC4)cc(F)c2n1 [Compound 188, N-[8-fluoro-2-methylimidazo[1,2-a]pyridin-6-yl]-4-(piperidin-4-yl)-2,3-dihydro-1-benzofuran-7-carboxamide] | > 10000 nM | 100 to 1000 nM | > 10000 nM | > 10000 nM | 1 to 10 µM
Cc1cn2cc(NC(=O)c3ccc(N4CCC(N(C)C)CC4)c4cn(C)nc34)cc(C)c2n1 [Compound 251] | 100 to 1000 nM | < 100 nM | 100 to 1000 nM | 100 to 1000 nM | 1 to 10 µM
Cc1cn2cc(NC(=O)c3ccc(N4C[C@H]5CC[C@@H](C4)N5)c4cn(C)nc34)cc(F)c2n1 [Compound 260] | 100 to 1000 nM | < 100 nM | 100 to 1000 nM | 100 to 1000 nM | > 10 µM
CCNC1CCN(c2ccc(C(=O)Nc3cc(F)c4nc(C)cn4c3)c3nn(C)cc23)CC1 [Compound 252] | 100 to 1000 nM | < 100 nM | 100 to 1000 nM | 100 to 1000 nM | 0.1 to 1 µM
Cc1cn2nc(-c3ccc(C(=O)NC4CCNCC4)c4nn(C)cc34)cc(C)c2n1 [Compound 281, 4-{2,8-dimethylimidazo[1,2-b]pyridazin-6-yl}-2-methyl-N-(piperidin-4-yl)indazole-7-carboxamide] | 1000 to 10000 nM | 100 to 1000 nM | 1000 to 10000 nM | 1000 to 10000 nM | 1 to 10 µM
Cc1cn2nc(NC(=O)c3ccc(N4CCNCC4)c4cc(C)oc34)cc2c(C)n1 [Compound 265] | > 10000 nM | 1000 to 10000 nM | > 10000 nM | > 10000 nM | > 10 µM
Cc1cn2cc(NC(=O)c3ccc(C4CCNCC4)c4oc(C)nc34)cc(F)c2n1 [Compound 187, N-[8-fluoro-2-methylimidazo[1,2-a]pyridin-6-yl]-2-methyl-7-(piperidin-4-yl)-1,3-benzoxazole-4-carboxamide] | 100 to 1000 nM | < 100 nM | 100 to 1000 nM | 100 to 1000 nM | 0.1 to 1 µM
Cc1cn2cc(NC(=O)c3ccc(C4CCNCC4)c4cn(C)nc34)cc(F)c2n1 [Compound 208, N-[8-fluoro-2-methylimidazo[1,2-a]pyridin-6-yl]-2-methyl-4-(piperidin-4-yl)indazole-7-carboxamide] | 100 to 1000 nM | < 100 nM | 100 to 1000 nM | 100 to 1000 nM | 1 to 10 µM
Cc1cn2cc(NC(=O)c3ccc(N4CCN5CCCC5C4)c4cn(C)nc34)cc(F)c2n1 (stereo not shown) [Compound 250] | 100 to 1000 nM | < 100 nM | 100 to 1000 nM | 100 to 1000 nM | 1 to 10 µM
Cc1cn2cc(NC(=O)c3ccc(N4CCC(N(C)C)C4)c4cc(C)oc34)cc(F)c2n1 (stereo not shown) [Compound 202] | > 10000 nM | < 100 nM | > 10000 nM | 1000 to 10000 nM | > 10 µM
Cc1cn2nc(NC(=O)c3ccc(C4CCNCC4)c4ccoc34)cc(C)c2n1 [Compound 119, N-[2,8-dimethylimidazo[1,2-b]pyridazin-6-yl]-4-(piperidin-4-yl)-1-benzofuran-7-carboxamide] | 1000 to 10000 nM | 100 to 1000 nM | 1000 to 10000 nM | > 10000 nM | > 10 µM
Cc1cn2cc(NC(=O)c3ccc(N4CCNCC4)c4cn(C)nc34)ncc2n1 [Compound 246] | 1000 to 10000 nM | < 100 nM | 1000 to 10000 nM | 1000 to 10000 nM | > 10 µM
